pIC50: −log10 of the molar value. Activity calls are given as the source filed them. The calls are words filed in the database; no cut-off is given here.

Experiment [1] addresses T1, Tyrosinase (Agaricus bisporus, UniProt O42713).
T1 sequence (O42713 whole entry): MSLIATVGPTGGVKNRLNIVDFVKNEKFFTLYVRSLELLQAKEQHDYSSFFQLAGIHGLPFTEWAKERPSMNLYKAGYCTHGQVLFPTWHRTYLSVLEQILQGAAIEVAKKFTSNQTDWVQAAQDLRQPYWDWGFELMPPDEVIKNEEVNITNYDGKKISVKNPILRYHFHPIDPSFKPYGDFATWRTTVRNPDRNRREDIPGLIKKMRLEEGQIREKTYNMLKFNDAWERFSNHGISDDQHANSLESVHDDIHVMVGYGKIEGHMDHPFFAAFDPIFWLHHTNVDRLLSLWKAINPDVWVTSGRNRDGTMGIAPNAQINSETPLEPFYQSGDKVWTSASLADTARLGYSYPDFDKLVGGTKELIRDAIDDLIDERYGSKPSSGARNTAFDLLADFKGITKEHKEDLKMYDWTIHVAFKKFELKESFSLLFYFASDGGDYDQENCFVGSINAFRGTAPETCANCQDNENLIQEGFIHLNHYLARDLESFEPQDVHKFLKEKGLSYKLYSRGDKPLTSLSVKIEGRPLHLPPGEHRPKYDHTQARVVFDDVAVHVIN
Description: Non-competitive inhibition of mushroom tyrosinase

In experiment [2] the target is T2, Tyrosinase (Homo sapiens) (UniProt P14679).
T2 sequence (whole entry): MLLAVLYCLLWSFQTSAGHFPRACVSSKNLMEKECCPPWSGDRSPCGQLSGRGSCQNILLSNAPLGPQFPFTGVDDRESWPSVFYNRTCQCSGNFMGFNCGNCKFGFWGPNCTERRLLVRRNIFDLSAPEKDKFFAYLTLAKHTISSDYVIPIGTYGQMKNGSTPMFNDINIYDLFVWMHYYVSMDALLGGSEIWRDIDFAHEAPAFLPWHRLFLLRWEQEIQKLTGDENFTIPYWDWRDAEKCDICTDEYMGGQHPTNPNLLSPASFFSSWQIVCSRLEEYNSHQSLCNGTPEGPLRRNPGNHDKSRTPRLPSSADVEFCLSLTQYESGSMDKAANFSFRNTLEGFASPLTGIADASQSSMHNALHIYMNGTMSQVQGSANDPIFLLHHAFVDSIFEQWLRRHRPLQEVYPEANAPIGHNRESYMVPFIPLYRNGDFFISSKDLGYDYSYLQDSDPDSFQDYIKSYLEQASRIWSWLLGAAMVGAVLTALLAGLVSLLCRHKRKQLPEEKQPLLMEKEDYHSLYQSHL
The experiment in a line: Ratio of kojic acid IC50 to compound IC50 for human tyrosinase.

Experiment [3] addresses T3, Tyrosinase (Homo sapiens, UniProt P14679).
T3 sequence (P14679 whole entry): T2 sequence (whole entry)
Nature of the experiment: Inhibition of tyrosinase in human HMV-2 melanoma cells after 5 mins by spectrophotometry. Type of experiment: cell-based.

Experiment [4] concerns the target T2, Tyrosinase (Homo sapiens). The following applies: G-361.
Description: (§1) Competitive inhibition of tyrosinase in human G-361 cells incubated for 10 mins measured for 2 hrs by MBTH-based spectrophotometry
Experiment [5] concerns the target T3, Tyrosinase.
Description: as §1
In experiment [6] the target is T1, Tyrosinase. This is another data set of the same source.
Description: Inhibition of mushroom tyrosinase
Experiment [7] addresses T2, Tyrosinase (Homo sapiens). The experiment in a line: Inhibition of tyrosinase in human G-361 cells at >200 uM incubated for 10 mins measured for 2 hrs by MBTH-based spectrophotometry. Type of experiment: cell-based.

`CCCCCCCC/C=C\CCCCCCCC(=O)OCC(COC(=O)CCCCCCC/C=C\CCCCCCCC)OC(=O)CCCCCCC/C=C\CCCCCCCC` [TRIOLEIN] showed a pIC50 against Tyrosinase [1] of 4.52. In the case of `CCCCC/C=C\C/C=C\CCCCCCCC(=O)OCC(COC(=O)CCCCCCC/C=C\C/C=C\CCCCC)OC(=O)CCCCCCC/C=C\C/C=C\CCCCC`, on Tyrosinase [1], the pIC50 is 5.08. With `O=C(NCCc1c[nH]c2cc(O)ccc12)c1cc(O)cc(O)c1`, the Ratio IC50 in experiment [2] is 34.1. Besides, the negative-log IC50 (pIC50) against Tyrosinase [3] is 5.04.

On to `CC(C)c1ccc(O)c(=O)cc1` [GAMMA-THUJAPLICIN], for which the inhibition entry in experiment [4] was “Dose-dependent effect”. Further, the Ratio IC50 in experiment [2] was found to be 497. Also, the pIC50 against Tyrosinase [5] was 5.94.

At Tyrosinase [6], `O=Cc1ccc(O)c(O)c1` [PROTOCATECHUALDEHYDE] had a pIC50 of 5.54. On to `CC(C)c1cccc(=O)c(O)c1` [HINOKITIOL], for which the inhibition entry in experiment [4] was “Dose-dependent effect”. Further, the Ratio IC50 in experiment [2] stood at 63.6. The same compound gave a pIC50 against Tyrosinase [5] of 5.05. Turning to `CC(C)c1ccccc(=O)c1O` [ALPHA-THUJAPLICIN], in experiment [7], the inhibition result was “Active”. In addition, the Ratio IC50 in experiment [2] is less than 0.57. On Tyrosinase [5], this compound gave a pIC50 of less than 3.00. The compound `O=c1cc(-c2ccc(O)c(O)c2)oc2c(O)c(O)ccc12` had a negative logarithm of the IC50 (pIC50) at Tyrosinase [6] of 7.15.

Values taken from ChEMBL document CHEMBL3352108, “Structure-activity relationships of the thujaplicins for inhibition of human tyrosinase” (Bioorg Med Chem, 2014).
